# Patent publication US20180028507A1, “3-CARBAMOYLPHENYL-4-CARBOXAMIDE AND ISOPHTALAMIDE DERIVATIVES AS INHIBITORS OF THE WNT SIGNALLING PATHWAY” (Bayer Pharma Aktiengesellschaft, priority 2015, published 2018)
# Experiments:
# [1] = test system: HCT116 cells cotransfected with the FOP control vector (non-functional TCF elements); test: HCT116 FOPFlash control reporter assay (FOP control vector, luciferase); format: cell-based; conditions: Homo sapiens, HCT-116, 36 hours incubation, dilution series 50 μM to 15 nM, luciferase expression
# Experimental: In a parallel approach, HCT116 cells were cotransfected with the FOP control vector and pcDNA3. The FOP vector is identical to the TOP construct, but it contains instead of functional TCF elements a randomized, non-functional sequence. For this transfection a stable transfected cell line was generated as well.
# (§1) In preparation of the assay, the two cell lines were plated 24 hours before at 10000 cells per well of a 384 micro titre plate (MTP) in 30 μL growth medium. Selective inhibitory activity for small molecules on the mutated Wnt pathway was determined after parallel incubation of both (TOP and FOP) HCT116 reporter cell lines with a compound dilution series from 50 μM to 15 nM in steps of 3.16-fold dilutions in CAFTY buffer (130 mM NaCl, 5 mM KCl, 20 mM HEPES, 1 mM MgCl2, 5 mM NaHCO3, pH 7.4) containing 2 mM Ca^2+ and 0.01% BSA. The compounds were thereby serially prediluted in 100% DMSO and thereafter in addition 50 fold into the CAFTY compound dilution buffer (described above). From this dilution 10 μL were added to the cells in 30 μL growth medium and incubated for 36 hours at 37° C. and 5% CO2.
# [2] = test system: constitutive active colorectal cancer cell (CRC) Wnt pathway; test: HCT116 TOPFlash cellular reporter assay (Super TopFlash vector, luciferase); format: cell-based; conditions: Homo sapiens, HCT-116; HCT116 Super TopFlash reporter cells, 36 hours incubation, dilution series 50 μM to 15 nM, luciferase expression
# Experimental: In order to discover and characterize small molecules which inhibit the constitutive active colorectal cancer cell (CRC) Wnt pathway, a cellular reporter assay was employed. The corresponding assay cell was generated by transfection of the colorectal cancer cell line HCT116 (ATCC, #CCL-247) with the Super TopFlash vector (Morin, Science 275, 1997, 1787-1790; Molenaar et al., Cell 86 (3), 1996, 391-399). The HCT116 cell line is cultivated at 37° C. and 5% CO2 in DMEM/F-12 (Life Technologies, #11320-074), supplemented with 2 mM glutamine, 20 mM HEPES, 1.4 mM pyruvate, 0.15% Na-bicarbonate and 10% foetal bovine serum (GIBCO, #10270), this cancer cell line is pathophysiological relevant since it carries a deletion of position S45 in the β-catenin gene, leading to constitutive active Wnt signaling. Stable transfectants were generated by cotransfection with pcDNA3 and selection of stable transfected cells with 1 mg/ml G418.
# as §1
Structure (SMILES),IC50 [1] [µM],IC50 [2] [µM]
"COc1cnccc1NC(=O)c1cc(C(=O)Nc2ccc(-c3ccccc3F)nc2)ccc1OC [Example 28, N^1-[6-(2-fluorophenyl)pyridin-3-yl]-4-methoxy-N^3-(3-methoxypyridin-4-yl)isophthalamide]",≥ 50,0.225
"Nc1ccc(CNC(=O)c2cc(C(=O)Nc3ccc(-c4ccccc4)cc3)ccc2OC(F)(F)F)cn1 [Example 29, N^3-[(6-aminopyridin-3-yl)methyl]-N^1-(biphenyl-4-yl)-4-(trifluoromethoxy)isophthalamide]",16,0.76
"O=C(Nc1ccc(-c2cccnc2)cn1)c1ccc(OC(F)(F)F)c(C(=O)NCc2cccnc2)c1 [Example 30, N^1-(3,3′-bipyridin-6-yl)-N^3-(pyridin-3-ylmethyl)-4-(trifluoromethoxy)isophthalamide]",31.5,0.42
"COCCNC(=O)c1cc(NC(=O)c2ccc(-c3ccccc3)cc2)ccc1OC [Example 31, N-{4-methoxy-3-[(2-methoxyethyl)carbamoyl]phenyl}biphenyl-4-carboxamide]",≥ 50,4.59
"COc1ccc(NC(=O)c2ccc(-c3ccccc3)cc2)cc1C(=O)NCc1ccccn1 [Example 32, N-{4-methoxy-3-[(pyridin-2-ylmethyl)carbamoyl]phenyl} biphenyl-4-carboxamide]",≥ 50,1.33
"COc1ccc(NC(=O)c2ccc(-c3ccccc3)cc2)cc1C(=O)NCc1ccccc1 [Example 33, N-[3-(benzylcarbamoyl)-4-methoxyphenyl]biphenyl-4-carboxamide]",≥ 50,3.35
"COc1ccc(NC(=O)c2ccc(-c3ccccc3)cc2)cc1C(=O)NCc1cccc(C)n1 [Example 34, N-(4-methoxy-3-{[(6-methylpyridin-2-yl)methyl]carbamoyl}phenyl) biphenyl-4-carboxamide]",≥ 50,3.65
"COCC(C)(C)CNC(=O)c1cc(NC(=O)c2ccc(-c3ccccc3)cc2)ccc1OC [Example 35, N-{4-methoxy-3-[(3-methoxy-2,2-dimethylpropyl)carbamoyl]phenyl}biphenyl-4-carboxamide]",≥ 50,4.35
"CCc1cc(NC(=O)c2cc(NC(=O)c3ccc(-c4ccccc4)cc3)ccc2OC)ccn1 [Example 36, N-{3-[(2-ethylpyridin-4-yl)carbamoyl]-4-methoxyphenyl}biphenyl-4-carboxamide]",29,1.43
"COc1ccc(NC(=O)c2ccc(-c3ccccc3)cc2)cc1C(=O)NCc1cccnc1 [Example 37, N-{4-methoxy-3-[(pyridin-3-ylmethyl)carbamoyl]phenyl} biphenyl-4-carboxamide]",25,1.8
"COc1cc(NC(=O)c2cc(C(=O)Nc3ccc(-c4ccccc4)cc3)ccc2OC)ccn1 [Example 38, N^1-(biphenyl-4-yl)-4-methoxy-N^3-(2-methoxypyridin-4-yl)isophthalamide]",21,1.11
"COc1ccc(C(=O)Nc2ccc(-c3ccccc3)cc2)cc1C(=O)NCc1ccccn1 [Example 39, N^1-(biphenyl-4-yl)-4-methoxy-N^3-(pyridin-2-ylmethyl)isophthalamide]",≥ 50,3.4
"Cc1ncccc1NC(=O)c1cc(C(=O)Nc2ccc(-c3ccccc3)cc2)ccc1OC(F)(F)F [Example 40, N^1-(biphenyl-4-yl)-N^3-(2-methylpyridin-3-yl)-4-(trifluoromethoxy) isophthalamide]",≥ 50,2.25
"COc1ccc(C(=O)Nc2ccc(-c3ccccc3F)nc2)cc1C(=O)NCc1cccnc1 [Example 41, N^1-[6-(2-fluorophenyl)pyridin-3-yl]-4-methoxy-N^3-(pyridin-3-ylmethyl)isophthalamide]",≥ 50,1.6
"O=C(Nc1ccc(-c2ccccc2F)nc1)c1ccc(OC(F)(F)F)c(C(=O)Nc2ccncc2F)c1 [Example 42, N^1-[6-(2-fluorophenyl)pyridin-3-yl]-N^3-(3-fluoropyridin-4-yl)-4-(trifluoromethoxy) isophthalamide]",≥ 50,2.13
"Cc1ccc(C(=O)Nc2ccc(-c3ccccc3)cc2)cc1C(=O)Nc1ccnc(F)c1 [Example 43, N^1-(biphenyl-4-yl)-N^3-(2-fluoropyridin-4-yl)-4-methylisophthalamide]",≥ 50,1.37

# Results, then the compound that gave them:
IC50 [1] [µM],IC50 [2] [µM],Structure (SMILES)
≥ 50,2.82,"COc1cc(NC(=O)c2cc(C(=O)Nc3ccc(-c4ccccc4F)nc3)ccc2OC)ccn1 [Example 44, N^1-[6-(2-fluorophenyl)pyridin-3-yl]-4-methoxy-N^3-(2-methoxypyridin-4-yl)isophthalamide]"
≥ 50,2.6,"O=C(Nc1ccc(-c2ccccc2)cc1)c1ccc(OC(F)(F)F)c(C(=O)Nc2cccnc2)c1 [Example 45, N^1-(biphenyl-4-yl)-N^3-(pyridin-3-yl)-4-(trifluoromethoxy) isophthalamide]"
≥ 50,2.23,"COc1ccc(C(=O)Nc2ccc(-c3ccccc3F)nc2)cc1C(=O)Nc1ccncc1C [Example 46, N^1-[6-(2-fluorophenyl)pyridin-3-yl]-4-methoxy-N^3-(3-methylpyridin-4-yl)isophthalamide]"
≥ 50,2.63,"Cc1cncc(NC(=O)c2cc(C(=O)Nc3ccc(-c4ccccc4)cc3)ccc2OC(F)(F)F)c1 [Example 47, N^1-(biphenyl-4-yl)-N^3-(5-methylpyridin-3-yl)-4-(trifluoromethoxy) isophthalamide]"
37,2.05,"CC(C)(C)OC(=O)Nc1ccc(CNC(=O)c2cc(C(=O)Nc3ccc(-c4ccccc4F)nc3)ccc2OC(F)(F)F)cn1 [Example 48, tert-butyl [5-({[5-{[6-(2-fluorophenyl)pyridin-3-yl]carbamoyl}-2-(trifluoromethoxy)benzoyl]amino}methyl)pyridin-2-yl]carbamate]"
≥ 50,4.8,"Nc1cccc(CNC(=O)c2cc(C(=O)Nc3ccc(-c4ccccc4F)nc3)ccc2OC(F)(F)F)n1 [Example 49, N^3-[(6-aminopyridin-2-yl)methyl]-N^1-[6-(2-fluorophenyl)pyridin-3-yl]-4-(trifluoromethoxy) isophthalamide]"
≥ 50,1.7,"O=C(Nc1ccc(-c2cccnc2)cn1)c1ccc(OC(F)(F)F)c(C(=O)NCc2cnccn2)c1 [Example 50, N^1-(3,3′-bipyridin-6-yl)-N^3-(pyrazin-2-ylmethyl)-4-(trifluoromethoxy) isophthalamide]"
14,1.8,"Nc1ccc(CNC(=O)c2cc(C(=O)Nc3ccc(-c4ccccc4F)nc3)ccc2OC(F)(F)F)cn1 [Example 51, N^3-[(6-aminopyridin-3-yl)methyl]-N^1-[6-(2-fluorophenyl)pyridin-3-yl]-4-(trifluoromethoxy) isophthalamide]"
12,1.75,"O=C(Nc1ccc(-c2ccccc2F)nc1)c1ccc(OC(F)(F)F)c(C(=O)NCc2ccccn2)c1 [Example 52, N^1-[6-(2-fluorophenyl)pyridin-3-yl]-N^3-(pyridin-2-ylmethyl)-4-(trifluoromethoxy) isophthalamide]"
≥ 50,10,"COc1ccc(C(=O)Nc2ccc(-c3ccccc3F)nc2)cc1C(=O)NCc1ccccn1 [Example 53, N^1-[6-(2-fluorophenyl)pyridin-3-yl]-4-methoxy-N^3-(pyridin-2-ylmethyl)isophthalamide]"
16,3.2,"COc1ccc(C(=O)Nc2ccc(-c3ccccc3)cc2)cc1C(=O)NCc1ccc(NC(=O)OC(C)(C)C)nc1 [Example 54, tert-butyl [5-({[5-(biphenyl-4-ylcarbamoyl)-2-methoxybenzoyl]amino}methyl)pyridin-2-yl]carbamate]"
23,4.9,"COc1ccc(C(=O)Nc2ccc(-c3ccccc3)cc2)cc1C(=O)Nc1cccnc1 [Example 55, N^1-(biphenyl-4-yl)-4-methoxy-N^3-(pyridin-3-yl)isophthalamide]"
8,1.8,"COc1ccc(C(=O)Nc2ccc(-c3ccccc3F)nc2)cc1C(=O)Nc1ccncc1 [Example 56, N^1-[6-(2-fluorophenyl)pyridin-3-yl]-4-methoxy-N^3-(pyridin-4-yl)isophthalamide]"
11,2.6,"O=C(Nc1ccc(-c2ccccc2F)nc1)c1ccc(OC(F)(F)F)c(C(=O)Nc2cccnc2)c1 [Example 57, N^1-[6-(2-fluorophenyl)pyridin-3-yl]-N^3-(pyridin-3-yl)-4-(trifluoromethoxy) isophthalamide]"
